Values joined by “and” are separate entries in the source; they are usually repeats but may differ in a detail not shown here. Equal entries are not always repeated. Where two headings read alike, the source gives them in different places.
Columns and labels:
MES-SA cells = experiment: Cell growth inhibition (resazurin, 48 hours), MES-SA
[1] = test system: NF-κB-mediated luciferase activity in HEK293 NF-κB/Luc cells; experiment: NF-κB-mediated luciferase reporter gene assay; assay type: cell-based, human; settings: for EC50: Homo sapiens; for luciferase activity upon TNF-α stimulation: pretreatment of NF-κB/Luc 293 cells
Procedure: (§1) The HEK293 NF-κB/luciferase reporter cell line is a derivative of the human embryonic kidney cell line (ATCC; CRL- 1573) and carries a luciferase reporter gene under the regulation of 5×NF-κB binding sites. […] When performing the luciferase assay, the DMEM basal medium was replaced with phenol-red free DMEM basal medium and the G418 was omitted.
For NF-κB-mediated luciferase assays, HEK293 NF-κB/luciferase cells were seeded at 1.5×10^4 cells/well in 90 μl phenol-red free DMEM complete medium into Corning 3917 white opaque-bottom tissue culture plates. […] This dilution series was further diluted 40× in appropriate culture medium and ten μl aliquots were added to the test wells in triplicate resulting in final test concentrations ranging from 1 μM to 320 pM. […] For Formula II-19, a 127 μM starting dilution was made in 100% DMSO and the final test concentrations ranging from 317 nM to 0.1 nM. […] After 1 hr pretreatment, 10 μl of a 50 ng/ml TNF-α solution, prepared in the phenol-red free DMEM medium was added, and the plates were incubated for an additional 6 hr.
NF-κB inducible luciferase activity was measured at 6 hours.
as §1, with “CRL-1573)” for “CRL- 1573)”
For NF-κB-mediated luciferase assays, HEK293 NF-κB/luciferase cells were seeded at 1.5×10^4 cells/well in 90 μl phenol-red free DMEM complete medium into Corning 3917 white opaque-bottom tissue culture plates. For Formula II-2, Formula II-4 and Formula II-5A, a 400 μM starting dilution was made in 100% DMSO and this dilution was used to generate a 8-point half log dilution series. This dilution series was further diluted 40× in appropriate culture medium and ten μl aliquots were added to the test wells in triplicate resulting in final test concentrations ranging from 1 μM to 320 pM. […] After 1 hr pretreatment, 10 μl of a 50 ng/ml TNF-α solution, prepared in the phenol-red free DMEM medium was added, and the plates were incubated for an additional 6 hr.
The relative luciferase units (RLU) were measured by using a Fusion microplate fluorometer (Packard Bioscience).

[2] = test system: LeTx-induced cytotoxicity of RAW264.7 cells; experiment: cells; settings: Mus musculus
PC-3 cells = experiment: Cell growth inhibition (resazurin, 48 hours), PC-3; assay type: cell-based, human
B16-F10 cells = experiment: Cell growth inhibition (resazurin, 48 hours), B16-F10; assay type: cell-based, mouse
U266 cells = experiment: Cell growth inhibition (resazurin, 48 hours), U266
[3] = target: T1, chymotrypsin-like activity of rabbit muscle 20S proteasomes (Oryctolagus cuniculus, UniProt G1T4Q9); experiment: Inhibition of chymotrypsin-like activity of purified rabbit muscle 20S proteasome (suc-LLVY-AMC); assay type: biochemical
T1 sequence (G1T4Q9 1-263): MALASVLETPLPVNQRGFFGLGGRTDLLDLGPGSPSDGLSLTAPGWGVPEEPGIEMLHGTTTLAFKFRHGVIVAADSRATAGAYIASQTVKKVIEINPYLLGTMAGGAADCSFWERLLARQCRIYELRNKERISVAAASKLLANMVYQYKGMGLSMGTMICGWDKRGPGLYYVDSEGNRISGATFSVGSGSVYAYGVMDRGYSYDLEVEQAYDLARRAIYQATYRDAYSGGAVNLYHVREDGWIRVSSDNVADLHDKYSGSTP
Procedure: This peptide substrate is specific for the chymotrypsin-like enzyme activity of the proteasome.
Omuralide was prepared as a 10 mM stock in DMSO and stored in 5 μL aliquots at −80° C. […] The assay measures the hydrolysis of Suc-LLVY-AMC into Suc-LLVY and AMC. The released coumarin (AMC) was measured fluorometrically by using λex=390 nm and λem=460 nm. The assays were performed in a microtiter plate (Corning 3904), and followed kinetically with measurements every five minutes. The instrument used was a Thermo Lab Systems Fluoroskan, with the incubation chamber set to 37° C. The assays were performed according to the manufacturer's protocol, with the following changes. The proteasome was activated as described with SDS, and held on ice prior to the assay. […] Ten microliters of each dose were added in triplicate to the assay plate, and 190 μL of the activated proteasome was added and mixed. The samples were pre-incubated in the Fluoroskan for 5 minutes at 37° C. Substrate was added and the kinetics of AMC were followed for one hour.

NCI-H292 cells = experiment: Cell growth inhibition (resazurin, 48 hours), NCI-H292; assay type: cell-based, human
MES-SA/Dx5 cells = experiment: cells; settings: for Fold change: ratio of EC50 values (MES-SA/Dx5:MES-SA)
HL-60 cells = experiment: Cell growth inhibition (resazurin, 48 hours), HL-60
From the text: The DNA binding agent Mitoxantrone was included as a control, as HL-60/MX2 cells are reported to be resistant to this chemotherapeutic agent (Harker W. G. et al. 1989).

MDA-MB-231 cells = experiment: Cell growth inhibition (resazurin, 48 hours), MDA-MB-231; assay type: cell-based; settings: Homo sapiens
HT-29 cells = experiment: Cell growth inhibition (resazurin, 48 hours), HT-29; assay type: cell-based; settings: Homo sapiens
OVCAR-3 cells = experiment: Cell growth inhibition (resazurin, 48 hours), OVCAR-3; assay type: cell-based, human
[4] = Homo sapiens, MES-SA, read-out: EC50 (nM) MES-SA, Table 16
[5] = RAW264.7, read-out: EC50 (nM), inhibition of RAW 264.7 cell cytotoxicity mediated by anthrax lethal toxin
[6] = Mus musculus, B16-F10, Table 13, B16-F10
[7] = Homo sapiens, U-266, Table 13, U266
[8] = Homo sapiens, U-266, read-out: U266 EC50 (nM), Table 15, mean EC50
[9] = Table 3, mean EC50, purified rabbit 20S proteasomes, read-out: EC50 Values, Chymotrypsin-like
[10] = Homo sapiens, NCI-H292, Table 13, NCI-H292
[11] = Homo sapiens, MES-SA/Dx5, read-out: EC50 (nM) MES-SA/Dx5, Table 16
[12] = read-out: EC50 (nM) MES-SA/Dx5, Table 16
[13] = Homo sapiens, HL-60, read-out: EC50 (nM) HL-60, Table 17
[14] = Homo sapiens, OVCAR-3, Table 13, OVCAR-3
[15] = read-out: EC50 (nM) MES-SA, Table 16
[16] = read-out: EC50 (nM) HL-60, Table 17

C[C@@]12OC(=O)[C@]1([C@@H](O)[C@@H]1C=CCCC1)NC(=O)[C@@H]2CCCl [Formula II-16, Salinosporamide A]
EC50 (MES-SA cells; Homo sapiens, MES-SA, read-out: EC50 (nM), mean): 20 ± 5 nM
% cytotoxicity, mean ± SD (MES-SA cells; Table 7, MES-SA): 94 ± 1%
EC50 ([1]; HEK293, 6 h, read-out: calculated EC50 for inhibition of NF-κB/luciferase activity): ~0.007 µM
luciferase activity upon TNF-α stimulation [1]: dose-dependent decrease
EC50 ([2]; RAW264.7, read-out: average EC50, viability of LeTx-treated cells): < 4 nM
EC50 (PC-3 cells; Homo sapiens, PC-3, 48 h, PC3, 48h, panel of b226): 78 nM
EC50 (PC-3 cells; Homo sapiens, PC-3, 48 h, read-out: EC50 (nM), mean ± SD, Table 2, PC-3, human prostate adenocarcinoma, 48 hours): 64 ± 26 nM
EC50 (PC-3 cells; Homo sapiens, PC-3, Table 6, PC-3 (n = 2)): 31 nM
% cytotoxicity (PC-3 cells; Table 6, PC-3 (n = 2)): 88% and 89%
EC50 (PC-3 cells; Table 6, PC-3 (n = 2)): 25 nM
EC50 (B16-F10 cells; Mus musculus, B16-F10, 48 h): 33 nM
EC50 (B16-F10 cells; Mus musculus, B16-F10, 48 h, read-out: EC50 (nM), mean ± SD): 47 ± 20 nM
EC50 (U266 cells; Homo sapiens, U-266, 48 h, read-out: EC50 (nM), mean ± SD): 4.7 ± 0.7 nM
EC50 (U266 cells; Homo sapiens, U-266, read-out: U266 EC50 (nM)): 4.1 nM
more potent than Omuralide ([3]; 20S proteasome assay EC50 values): approximately 40 fold
EC50 (NCI-H292 cells; Homo sapiens, NCI-H292, 48 h): 97 nM
EC50 (NCI-H292 cells; Homo sapiens, NCI-H292, 48 h, read-out: EC50 (nM), mean ± SD): 66 ± 29 nM
EC50 (MES-SA/Dx5 cells; Homo sapiens, MES-SA/Dx5, read-out: EC50 (nM), mean ± SD): 23 ± 1 nM
% cytotoxicity, mean ± SD (MES-SA/Dx5 cells; Table 7, MES-SA/Dx5): 92 ± 2%
EC50 (HL-60 cells; Homo sapiens, HL-60, Table 8, HL-60): 27 nM
% cytotoxicity (HL-60 cells; Table 8, HL-60): 88% and 91%
EC50 (HL-60 cells; Table 8, HL-60): 30 nM
EC50 (MDA-MB-231 cells; MDA-MB-231, 48 h): 67 nM
EC50 (MDA-MB-231 cells; MDA-MB-231, 48 h, read-out: EC50 (nM), mean ± SD): 87 ± 40 nM
EC50 (HT-29 cells; HT-29, 48 h): 47 nM
EC50 (HT-29 cells; HT-29, 48 h, read-out: EC50 (nM), mean ± SD): 40 ± 26 nM
EC50 (OVCAR-3 cells; Homo sapiens, OVCAR-3, 48 h): 69 nM
EC50 (OVCAR-3 cells; Homo sapiens, OVCAR-3, 48 h, read-out: EC50 (nM), mean ± SD): 49 ± 31 nM

C[C@@]12OC(=O)[C@]1([C@@H](O)C1CCCCC1)NC(=O)[C@@H]2CCBr [Formula II-4]
EC50 (MES-SA cells; [4]): 163 nM
EC50 ([1]; HEK293, read-out: calculated EC50 to inhibit NF-κB inducible luciferase activity): 0.067 µM
luciferase activity upon TNF-α stimulation [1]: dose-dependent decrease
EC50 [2, 5]: 14 nM
EC50 (PC-3 cells; Homo sapiens, PC-3): 204 ± 49 nM
EC50 (B16-F10 cells; [6]): 163 nM
EC50 (B16-F10 cells; Table 13, B16-F10): 175 nM
EC50 (U266 cells; [7]): 39 nM
EC50 (U266 cells; [8]): 36 nM
EC50 (U266 cells; Table 13, U266): 34 nM
EC50 [3, 9]: 0.0142 µM
EC50 ([3]; representative experiment, Example 44 (FIG. 46, 47), read-out: EC50, chymotrypsin-like activity of the proteasome): 0.015 µM
EC50 (NCI-H292 cells; [10]): 192 nM
EC50 (MES-SA/Dx5 cells; [11]): 178 nM
Fold change (MES-SA/Dx5 cells; Table 16): 0.9 fold
EC50 (MES-SA/Dx5 cells; [12]): 93 nM
EC50 (HL-60 cells; [13]): 111 nM
EC50 (MDA-MB-231 cells; MDA-MB-231): 114 ± 4 nM
EC50 (HT-29 cells; Table 13, HT-29, read-out: EC50): 132 ± 36 nM
EC50 (OVCAR-3 cells; [14]): > 6320 nM

C[C@@]12OC(=O)[C@]1([C@@H](O)C1CCCCC1)NC(=O)[C@@H]2CCCl [Formula II-2]
EC50 (MES-SA cells; [4]): 193 nM
EC50 (MES-SA cells; [15]): 155 nM
EC50 ([1]; HEK293, representative experiment, Example 43 (FIG. 44, 45), read-out: calculated EC50 to inhibit NF-κB inducible luciferase activity): 0.073 µM
luciferase activity upon TNF-α stimulation [1]: dose-dependent decrease
EC50 [2, 5]: 14 nM
EC50 (PC-3 cells; Homo sapiens, Table 13, PC-3, read-out: EC50): 284 ± 110 nM
EC50 (B16-F10 cells; [6]): 194 nM
EC50 (U266 cells; [7]): 32 nM
EC50 (U266 cells; [8]): 36 nM
EC50 ([3]; EC50, chymotrypsin-like activity of the proteasome): 0.0185 µM
EC50 ([3]; EC50 Values, Chymotrypsin-like): 0.018 µM
EC50 (NCI-H292 cells; [10]): 322 nM
EC50 (MES-SA/Dx5 cells; [11]): 220 nM
Fold change (MES-SA/Dx5 cells; Table 16): 1.0 fold
EC50 (MES-SA/Dx5 cells; [12]): 138 nM
EC50 (HL-60 cells; [13]): 237 nM
EC50 (HL-60 cells; [16]): 176 nM
EC50 (MDA-MB-231 cells; MDA-MB-231): 121 ± 23 nM
EC50 (HT-29 cells; HT-29): 129 ± 21 nM
EC50 (OVCAR-3 cells; [14]): 188 nM
EC50 (OVCAR-3 cells; Table 13, OVCAR-3): 251 nM

C[C@@]12OC(=O)[C@]1([C@@H](O)[C@@H]1C=CCCC1)NC(=O)[C@@H]2CCBr [Formula II-18]
EC50 (MES-SA cells; [4]): 22 nM
EC50 (MES-SA cells; [15]): 17 nM
luciferase activity upon TNF-α stimulation [1]: dose-dependent decrease
EC50 [2, 5]: 4 nM
EC50 (PC-3 cells; Homo sapiens, PC-3): 35 ± 5.6 nM
EC50 (B16-F10 cells; [6]): 19 nM
EC50 (B16-F10 cells; Table 13, B16-F10): 36 nM
EC50 (U266 cells; [7]): 4.2 nM
EC50 (U266 cells; [8]): 4.2 nM
EC50 [3, 9]: 0.0022 µM
EC50 (NCI-H292 cells; [10]): 29 nM
EC50 (NCI-H292 cells; Table 13, NCI-H292): 41 nM
Fold change (MES-SA/Dx5 cells; Table 16): 1.2 fold
EC50 (HL-60 cells; [13]): 27 nM
EC50 (HL-60 cells; [16]): 23 nM
EC50 (MDA-MB-231 cells; MDA-MB-231): 16 ± 2.8 nM
EC50 (HT-29 cells; HT-29): 18 ± 7.8 nM
EC50 (OVCAR-3 cells; [14]): > 2000 nM

From patent US20050049294A1, “Methods of using [3.2.0] heterocyclic compounds and analogs thereof” (priority 2003, published 2005)
